{"source": "patent EP0288176A1", "about": "“Tyrosine derivatives and use thereof” (AJINOMOTO CO., INC., priority 1987, dated 1988)", "key": {"[1]": {"test": "Activity test: peroral administration with insulin, blood glucose decrease and blood insulin increase", "type": "in vivo, female mice of ICR-CD-1 strain", "set-up": "key to percent decrease in blood sugar (%): The symbol + means that there was no decrease in blood sugar; key to degree of increase of blood insulin: the symbol - means that there was no increase in blood insulin", "details": "0.5 U insulin/10 g bodyweight and 3 mg compound/10 g bodyweight, compared with control group", "method": "The absorption promoting agents according to the present invention shown in Table 1 were suspended in 0.5% CMC - 0.05 M trisHCl buffer (pH 7.8), and mixed with insulin. The resultant mixture was administered perorally to female mice of ICR-CD-1 strain (aged 5 to 7 weeks) at 0.5 U insulin/10 g bodyweight and 3 mg of the above compound/10 g bodyweight. The percent decrease of blood glucose(%) and the degree of increase of blood insulin after predetermined periods of time were compared with those of the control group, and the results are shown in Table 2.\nIn the Table, the figures given in the upper rows denote 1) percent of decrease in blood glucose(%) and those in the lower rows in parentheses denote 2) degree of increase in blood insulin level. The symbol + means that there was no decrease in blood sugar and the symbol - means that there was no increase in blood insulin."}, "[2]": {"test": "Toxicity: LD50 in mice, perorally administered", "details": "mouse, in vivo, po, read-out: LD₅₀", "source_text": "Toxicity of O-alkyl tyrosine derivatives is low; each of LD₅₀ in mice perorally administered of O-methyl-N-(4-methylcinnamoyl)-L-tyrosine (S-1), O-methyl-N-(α-fluoro-4-methylcinnamoyl)-L-tyrosine (S-5), O-methyl-N-(β-chloro-4-methylcinnamoyl)-L-tyrosine (S-9) is 3.0 g/kg or higher."}}, "data": [{"smiles": "COc1ccc(C[C@@H](NC(=O)C=C(Cl)c2ccc(C)cc2)C(=O)O)cc1", "note": "[Compound S-10, O-methyl-N-(β-chloro-4-methylcinnamoyl)-D-tyrosine]", "values": [{"measurement": "percent decrease in blood sugar (%)", "setting": "[1]; 60 min.", "value": "+"}]}, {"smiles": "COc1ccc(C[C@H](NC(=O)C=Cc2ccc(C)cc2)C(=O)O)cc1", "note": "[Compound S-1, O-methyl-N-(4-methylcinnamoyl)-L-tyrosine]", "values": [{"measurement": "LD50", "setting": "[2]", "value": "≥ 3000", "unit": "mg/kg"}]}, {"smiles": "CCOc1ccc(C[C@H](NC(=O)C(F)=Cc2ccc(C)cc2)C(=O)O)cc1", "note": "[Compound S-6, O-ethyl-N-(α-fluroro-4-methylcinnamoyl)-L-tyrosine]", "values": [{"measurement": "degree of increase of blood insulin", "setting": "[1]; 15 min.", "value": 5.3}, {"measurement": "percent decrease in blood sugar (%)", "setting": "[1]; 15 min.", "value": 29.1, "unit": "%"}, {"measurement": "degree of increase of blood insulin", "setting": "[1]; 30 min.", "value": "-"}, {"measurement": "percent decrease in blood sugar (%)", "setting": "[1]; 30 min.", "value": "+"}, {"measurement": "degree of increase of blood insulin", "setting": "[1]; 60 min.", "value": "-"}, {"measurement": "percent decrease in blood sugar (%)", "setting": "[1]; 60 min.", "value": "+"}]}, {"smiles": "COc1ccc(C[C@H](NC(=O)C(F)=Cc2ccc(C)cc2)C(=O)O)cc1", "note": "[Compound S-5, O-methyl-N-(α-fluoro-4-methycinnamoyl)-L-tyrosine]", "values": [{"measurement": "percent decrease in blood sugar (%)", "setting": "[1]; 60 min.", "value": "+"}, {"measurement": "LD50", "setting": "[2]", "value": "≥ 3000", "unit": "mg/kg"}]}, {"smiles": "COc1ccc(C[C@H](NC(=O)C=C(Cl)c2ccc(C)cc2)C(=O)O)cc1", "note": "[Compound S-9, O-methyl-N-(β-chloro-4-methylcinnamoyl)-L-tyrosine]", "values": [{"measurement": "degree of increase of blood insulin", "setting": "[1]; 60 min.", "value": "-"}, {"measurement": "LD50", "setting": "[2]", "value": "≥ 3000", "unit": "mg/kg"}]}, {"smiles": "COc1ccc(C[C@@H](NC(=O)C(Cl)=Cc2ccc(C)cc2)C(=O)O)cc1", "note": "[Compound S-8, O-methyl-N-(α-chloro-4-methylcinnamoyl)-D-tyrosine]", "values": [{"measurement": "percent decrease in blood sugar (%)", "setting": "[1]; 60 min.", "value": "+"}]}, {"smiles": "CCOc1ccc(C[C@H](NC(=O)C=Cc2ccc(C)cc2)C(=O)O)cc1", "note": "[Compound S-2, O-ethyl-N-(4-methylcinnamoyl)-L-tyrosine]", "values": [{"measurement": "degree of increase of blood insulin", "setting": "[1]; 30 min.", "value": "-"}, {"measurement": "percent decrease in blood sugar (%)", "setting": "[1]; 30 min.", "value": "+"}]}, {"smiles": "COc1ccc(C[C@H](NC(=O)C(F)=Cc2ccccc2)C(=O)O)cc1", "note": "[Compound S-4, O-methyl-N-(α-fluorocinnamoyl)-L-tyrosine]", "values": [{"measurement": "percent decrease in blood sugar (%)", "setting": "[1]; 60 min.", "value": "+"}]}, {"smiles": "COc1ccc(C[C@H](NC(=O)C(Cl)=Cc2ccc(C)cc2)C(=O)O)cc1", "note": "[Compound S-7, O-methyl-N-(α-chloro-4-methylcinnamoyl)-L-tyrosine]", "values": [{"measurement": "percent decrease in blood sugar (%)", "setting": "[1]; 15 min.", "value": 28.6, "unit": "%"}, {"measurement": "percent decrease in blood sugar (%)", "setting": "[1]; 30 min.", "value": "+"}, {"measurement": "percent decrease in blood sugar (%)", "setting": "[1]; 60 min.", "value": "+"}]}]}
